Measured values reported in US4097496A, “Novel cyclopentane derivatives” (Hoechst Aktiengesellschaft, priority 1973, dated 1978).
Values after ≈ are worked out from the molar mass of the structure shown.

Columns and labels:
[1] = test system: PGE2-contraction in the isolated guinea pig ileum; assay: Inhibition of the PGE2-contraction in the isolated guinea pig ileum; details: Cavia porcellus, agonist PGE2 200 ng/ml; for IC50: 3 min pre-treatment, probit analysis, 37° C; for inhibition at 10 µg/mL: at 10 μg/ml
Procedure: (§1) It is surprising that the compounds of the formula I which are closely related to the natural prostaglandins with regard to their structure, as it has been mentioned above, have a strong anti-prostaglandin effect. If, for example, a solution of the compounds of the invention in water is added to the isolated guinea pig ileum or uterus and if for example prostaglandin E2 or F2 α is added to this solution, in concentrations which normally stimulate the isolated ileum or the isolated uterus to strong contractions, only a weaker or no spasmogenic effect of the prostaglandins E2 and F2 α can be detected - depending on the concentrations used.
As test animals were used brown guinea pigs, males and females having a weight of from about 300 to 400 g. The animals were killed by a blow into the neck, the terminal ileum was rapidly taken off and put into a Petri dish containing a pre-heated Tyrode's solution. The intestine was decomposed into four equal sections (2 to 3 cm). Then the individual sections were put into an organ liquor filled with a Tyrode's solution and bubbled through by oxygen and they were fixed. The bath temperature was 37° C. Composition of the Tyrode's solution: […], 0.2 g of KCl, 0.55 g of CaCl2, 0.2 g of Mg Cl2, 1.0 g of glucose, 1.0 g of NaHCO3 in 1000 ml of distilled water. The free end was connected with the writing lever by a thread. The charge of the thread was 1 g. After a 30 minutes' recovery time the test itself was initiated. The test consisted in a pre-treatment with the antagonist to be tested and in the administration of the agonist three minutes later. The resulting contraction was compared with the initial contraction achieved by the administration of the agonist only. This latter contraction was considered as being 100%, and the contraction determined by the compound of the invention acting as antagonist was expressed in percent with regard to this basic contraction. All substances were dissolved in absolute alcohol and further diluted to their final concentrations with phosphate buffer (pH 7.4). As agonists were used prostaglandin E2 (UPJOHN) in the isolated ileum, and PGF2 in the isolated uterus.
The average concentration was determined by means of the probit analysis. The straight line resulting from this method allowed to read the average inhibiting concentration (Table I).
Inhibition of the PGE2 - and PGF2α -contraction in the isolated guinea pig ileum or uterus

[2] = test system: PGF2α-contraction in the isolated guinea pig uterus; assay: Inhibition of the PGF2α-contraction in the isolated guinea pig uterus; details: Cavia porcellus, agonist PGF2α 40 ng/ml, deJalon solution, probit analysis
Procedure: as §1
As test animals were used brown guinea pigs, males and females having a weight of from about 300 to 400 g. The animals were killed by a blow into the neck, the terminal ileum was rapidly taken off and put into a Petri dish containing a pre-heated Tyrode's solution. The intestine was decomposed into four equal sections (2 to 3 cm). […] This latter contraction was considered as being 100%, and the contraction determined by the compound of the invention acting as antagonist was expressed in percent with regard to this basic contraction. […]
The average concentration was determined by means of the probit analysis. The straight line resulting from this method allowed to read the average inhibiting concentration (Table I). […]

[3] = read-out: inhibition in percent for the corresponding dosis

SMILES	IC50 [1]	inhibition at 10 µg/mL [1, 3]	inhibition at 5 µg/mL ([1]; at 5 μg/ml, read-out: inhibition in percent for the corresponding dosis)	IC50 [2]
CCCCCC(O)/C=C/C1CCC(O)C1(Cc1ccccc1CCCC(=O)O)C(=O)OCC (stereo not drawn) [Example 46, (5RS,3'"SR)-1-[2'-(3"-Carboxypropyl)-benzyl]-2-hydroxy-5-[3'"-hydroxy-trans-1'"-octenyl]-cyclopentane-carboxylic acid ethyl ester]	< 10 µg/mL	80%		
CCCCCC(/C=C/C1CCC(O)C1(CCCCC(C)CC(=O)O)C(=O)OCC)OC1CCCCO1 (stereo not drawn) [Example 11, (5RS,3"SR)-1-(6'-Carboxy-5'-methylhexyl)-2-hydroxy-5-[3"-(2'"-tetrahydropyranyloxy)-trans-1"-octenyl]-cyclopentane-carboxylic acid ethyl ester]	< 10 µg/mL	80%		
CCCCCC(O)/C=C/C1CCC(O)C1(CCCCOCC(=O)O)C(=O)OCC (stereo not drawn) [Example 30, (5RS,3"SR)-1-(6'-Carboxy-5'-oxahexyl)-2-hydroxy-5-[3"-hydroxy-trans-1"-octentyl]-cyclopentane-carboxylic acid ethyl ester]	< 5 µg/mL		80%	
CCCCCC(O)/C=C/C1CCC(O)C1(CCCCCCC(=O)O)C(=O)OCC (stereo not drawn) [Example 3, (5 RS, 3" SR)-1-(6'-carboxyhexyl)-2-hydroxy-5-(3"-hydroxy-trans-1"-octenyl)-cyclopentane-carboxylic acid ethyl ester]				2 µg/mL (≈ 4.85 µM)
CCCCCC(/C=C/C1CCC(=O)C1(CCCCC(C)CC(=O)OCC)C(=O)OCC)OC1CCCCO1 (stereo not drawn) [Example 10, (5RS,3"SR)-1-(6'-Ethoxycarbonyl-5'-methylhexyl)-2-oxo-5-[3"-(2'"-tetrahydropyranyloxy)-trans-1"-octenyl]-cyclopentane-carboxylic acid ethyl ester]	> 10 µg/mL	10%		
CCCCCC(O)/C=C/C1CCC(O)C1(C/C=C\COCC(=O)O)C(=O)OCC (stereo not drawn) [Example 32, (5RS,3"SR)-1-(6'-Carboxy-5'-oxa-cis-2'-hexenyl)-2-hydroxy5-[3"-hydroxy-trans-1"-octenyl]-cyclopentane-carboxylic acid ethyl ester]	~5 µg/mL (≈ 12.1 µM)			
CCCCCC(/C=C/C1CCC(O)C1(CCC(C)CCCC(=O)O)C(=O)OCC)OC1CCCCO1 (stereo not drawn) [Example 5, (5 RS, 3" SR)-1-(6'-Carboxy-3'-methylhexyl)-2-hydroxy-5-[3"-(2"'-tetrahydropyranyloxy)-trans-1"-octenyl]-cyclopentane-carboxylic acid ethyl ester]				10 µg/mL (≈ 19.6 µM)
CCCCCC(O)/C=C/C1CCC(O)C1(C/C=C/COCC(=O)O)C(=O)OCC (stereo not drawn) [Example 37, (5RS,3"SR)-1-(6'-Carboxy-5'-oxa-trans-2'-hexenyl)-2-hydroxy-5-(3"-hydroxy-trans-1"-octenyl)-cyclopentanecarboxylic acid ethyl ester]	< 10 µg/mL	65%		
CCCCCC(/C=C/C1CCC(=O)C1(CCC(C)CCCC(=O)OCC)C(=O)OCC)OC1CCCCO1 (stereo not drawn) [Example 4, (5 RS, 3" SR)-1-(6'-Ethoxycarbonyl-3'-methylhexyl)-2-oxo-5-[3"-(2"'-tetrahydropyranyloxy)-trans-1"-octenyl]-cyclopentane-carboxylic acid ethyl ester]	1.2 µg/mL (≈ 2.24 µM)			
CCCCCC(/C=C/C1CCC(=O)C1(Cc1ccccc1CCCC(=O)OCC)C(=O)OCC)OC1CCCCO1 (stereo not drawn) [Example 44, (5RS,3'"SR)-1-[2'-(3"-Ethoxycarbonylpropyl)-benzyl]-2-oxo-5-[3'"-(2""-tetrahydropyranyloxy)-trans-1'"-octenyl]-cyclopentane-carboxylic acid ethyl ester]	< 10 µg/mL	40%		
CCCCCC(/C=C/C1CCC(O)C1(C/C=C/COCC(=O)O)C(=O)OCC)OC1CCCCO1 (stereo not drawn) [Example 35, (5RS,3"SR)-1-(6'-Carboxy-5'-oxa-trans-2'-hexenyl)-2-hydroxy-5-[3"-(2'"-tetrahydropyranyloxy)-trans-1"-octenyl]cyclopntane-carboxylic acid ethyl ester]	2.3 µg/mL (≈ 4.63 µM)			
CCCCCC(O)/C=C/C1CCC(O)C1(C/C=C/COCC(=O)OCC)C(=O)OCC (stereo not shown) [Example 36]	4.6 µg/mL (≈ 10.4 µM)			
CCCCCC(/C=C/C1CCC(=O)C1(CCCCCC(C)C(=O)OCC)C(=O)OCC)OC1CCCCO1 (stereo not drawn) [Example 13, (5RS,3"SR)-1-(6'-Ethoxycarbonylheptyl)-2-oxo-5-[3"-(2'"-tetrahydropyranyloxy)-trans-1"-octenyl]-cyclopentane-carboxylic acid ethyl ester]	~5 µg/mL (≈ 9.32 µM)			
CCCCCC(/C=C/C1CCC(O)C1(Cc1ccccc1CCCC(=O)O)C(=O)OCC)OC1CCCCO1 (stereo not drawn) [Example 45, (5RS,3'"SR)-1-[2'-(3"-Carboxypropyl)-benzyl]-2-hydroxy-5-[3'"-(2""-tetrahydropyranyloxy)-trans-1'"-octenyl]-cyclopentane-carboxylic acid ethyl ester]	~10 µg/mL (≈ 18.4 µM)			
CCCCCC(/C=C/C1CCC(O)C1(CCCC(C)CCC(=O)O)C(=O)OCC)OC1CCCCO1 (stereo not drawn) [Example 8, (5RS,3"SR)-1-(6'-Carboxy-4'-methylhexyl)-2-hydroxy-5-[3"-(2'"-tetrahydropyranyloxy)-trans-1"-octenyl]-cyclopentane-carboxylic acid ethyl ester]	< 10 µg/mL	80%		
